Measured values reported in patent US20230104800A1, “COMBINATION THERAPIES AND BIOMARKERS FOR TREATING CANCER” (priority 2020, published 2023).

Test system: SHEP-MYCN-ER cells
Experiment: FUCCI high-content live-cell imaging of cell cycle-related cell-killing activity
Assay type: cell-based, Human
Conditions: neuroblastoma SHEP-MYCN-ER cells with 200 nM 4-OHT (high MYCN), PC-002: 10 nM YM155, CHOP: 2 μM cyclophosphamide, 0.2 μM Doxorubicin, 8 nM vincristine, imaged every 20 min for 72 h
Procedure: Cultures were incubated at 37° C. in 5% CO2.
Mix each FUCCI Premo™ reagent (Thermo fisher, P36237) by inversion to ensure a homogenous solution. Add the mixed reagent to the SHEP-MYCN-ER cells in complete cell medium and mix gently. Return the cells to the culture incubator for over 16 hour.
High-content live-cell imaging analysis. After transfection, SHEP-MYCN-ER cells were incubated in complete cell medium with concentration indicated of different drugs (PC-002: 10 nM YM155, CHOP: 2 μM cyclophosphamide; 0.2 μM Doxorubicin; 8 nM vincristine). Cells were grown in Array Scan™ Live Cell Module and imaged every 20 min for 72 h under controlled growth conditions (CellInsight™ CX5 High-Content Screening (HSC) Platform, Thermo Fisher; Array Scan™ Live Cell Module, Thermo Fisher).
In the G1 phase of the cell cycle, geminin is broken down and only Cdtl tagged with RFP may be visualized, thus identifying cells in the G1 phase with red fluorescent nuclei. In the S, G2, and M phases, however, Cdt1 is degraded and only geminin tagged with GFP remains, thus identifying cells in these phases with green fluorescent nuclei. During the G1/S transition, both proteins are present in the cells, allowing GFP and RFP fluorescence to be observed—when green and red images are overlaid, the cells appear with yellow (orange) fluorescent nuclei. The dynamic color change from red-to-yellow, yellow-to-green or green-to-red represents the progression through cell cycle (live). The cell dead without color change represents the sensitivity to the drug (death).

## 1-(2-Methoxyethyl)-2-methyl-4,9-dioxo-3-(pyrazin-2-ylmethyl)-4,9-dihydro-1H-naphtho[2,3-d] imidazolium bromide [YM155]
FIG. 6A
  cancer cell-killing activity in the G1 phase of the cell cycle (dead vs live cells): not significantly
FIG. 6B
  cancer cell-killing activity in the S/G2 phase of the cell cycle (dead vs live cells): predominantly
FIG. 6C
  cancer cell-killing activity in the M phase of the cell cycle (dead vs live cells): not significantly
